In patent US11806343B2, “Inhibitors of DUX4 induction for regulation of muscle function” (Sonic Master Limited, priority 2017, dated 2023):
Several values for one entry are separate records, joined by “and”; a condition that tells them apart may be missing. Equal values may be shown once. Read-outs that look alike come from different tables or passages of the source.

Legend:
SRC = experiment: Immunofluorescence of nuclear phosphorylated SRC^416 in primary myocytes; type: cell-based, human; details: 100 nM or 500 nM, 1 hour
Description: Patient biopsy-derived primary myoblasts were seeded to a collagen-I coated plate in primary myoblast medium. Medium was changed every other day until cells reached 80% confluence followed by a switch to primary myotube medium. […] PRKDC (phosphorylated PRKDC^2609), active SRC (phosphorylated SRC^416), and nuclei.

[1] = Acute pharmacokinetic study, plasma; type: in vivo, CD-1 mice; details: mouse plasma; for AUClast: 0 to 24 hours
Description: Intraperitoneal injection, which provides the drug via absorption into the mesenteric blood supply and is thus subject to hepatic first-pass metabolism, was used to approximate oral dosings total of 96 mice were utilized: 3 naive CD-1 male mice and 3 naïve CD-1 female mice were dosed per route of administration per 2 doses plus 3 naive CD-1 male mice and 3 naïve CD-1 female mice were per route of administration per dose for tissue collection. Following administration, blood, brain, and muscle samples were collected as follows; Two blood samples were collected from each mouse at 2 distinct timepoints over 24 bout post-dose to include 0.25, 0.5, 1, 2, 4, 8, and 24 hours. Blood samples were centrifuged to obtain plasma samples. For each time point, duplicate aliquots of plasma were transferred into an appropriately labeled sample tube containing a volume of buffer. The diluted plasma samples were stored at −20° C. for the first 24 hours and then transferred to −80° C. 24 hours of processing. Terminal brain and muscle samples were collected at 1 hour and 24 hours after administration. Tissue samples were temporarily put on dry ice and then stored at −20° C. for the first 24 hours and then transferred to −80° C. 24 hours of collection Plasma, brain and muscle samples were analyzed for test substance quantification using a method based on protein precipitation followed by HPLC-MS/MS analysis within optimized bioanalytical method.

[2] = test system: 17MB026 primary FSHD-affected patient myotubes; experiment: FSHD primary patient biopsy myotube immunocytochemistry, Myosin Heavy Chain and nuclei; type: cell-based, human; details: 17MB026 primary myotubes, 2 nM-5 μM, 2.5 days
Description: (§1) FIG. 10 provides the workflow for assays performed with patient biopsy-derived muscle. On Day 0, patient myoblasts are passaged in a 96-well dish in primary myoblast medium (Genea BioCells). On Day 2, the medium is changed to […].
(§2) 17MB026 primary FSHD-affected patient myoblasts (obtained from the University of Rochester FSHD Biorepository) were thawed and cultured as described in Rickard et al., 2015 in primary myoblast medium. Cells (6000 per well) were seeded to a collagen-I coated 96-well plate in 100 μl primary myoblast medium. Medium was changed every other day until cells reached 80% confluence followed by a switch to 100 μL per well primary myotube medium. […] Cells were fixed and analyzed after 2.5 days of myotube formation by immunocytochemistry and high-content imaging for DUX4, H3.X/Y, Myosin Heavy Chain expression and nuclei number. Five or six replicate wells were averaged per condition, […]

DUX4 [3] = experiment: DUX4 expression downregulation by kinase family inhibitors (Table 1); type: cell-based; details: at the lowest significant concentration; listed as DCC2036
[4] = test system: 4qA and D4Z4 regions of chromosome 4; experiment: Bisulfite sequencing of DNA methylation at 4qA and D4Z4 regions in FSHD-affected myotubes; type: cell-based, human; details: Genea049 FSHD-affected myotubes, 10 nM, 100 nM or 1 μM, myotube day 3
Description: Healthy (Genea015) or FSHD-affected (Genea049) MSC-derived myoblasts were cultured in Myoblast Media (Genea Biocells) while performing media changes every other day. When cells reached confluence, the medium was switched to Myottibe Medium (Genea Biocells) without any further media changes. On myotube day 3, cells were trypsinized and cell pellets were prepared for bisulfite sequencing analysis. Genomic DNA was isolated from cell pellets using QIAamp DNA Blood Mini Kit (Qiagen) and bisultite converted using the EpiTect Kit (Qiagen). The 4qA and D4Z4 regions were amplified and cloned into the pCR2.1 TOPO vector. The 4qA or D4Z4 containing plasmids were transformed into TOP10 chemically competent E. coli and selected for kanamycin resistance. Sequencing of kanamycin resistant colonies was completed by Sequegen and methylation analysis was performed using Bisulfite Sequencing DNA Methylation Analysis (BISMA) online software.
FSHD-affected. (Genea049) embryonic stem cell-derived myoblasts were cultured in Myoblast Media (Genea Biocells) while performing media changes every other day. When cells reached confluence, the medium was switched to Myotube Medium (Genea. Biocells) without any further media changes. […] On myotube day 3, myotubes were trypsinized and cell pellets were prepared for bisulfite sequencing analysis. Refer to the FIG. 1 legend for additional details.

DUX4 [5] = experiment: FSHD primary patient biopsy myotube immunocytochemistry, DUX4 expression; type: cell-based, human
Description: as §1, §2

[6] = IM, 10 mg/kg single dose, N = 6
[7] = IM, 50 mg/kg single dose, N = 6
[8] = IP, 10 mg/kg single dose, N = 6
[9] = IP, 50 mg/kg single dose, N = 6

What does the source list for `CNC(=O)c1cc(Oc2ccc(NC(=O)Nc3cc(C(C)(C)C)nn3-c3ccc4ncccc4c3)c(F)c2)ccn1` [GBC0905, Rebastinib]?
intensity distribution of nuclear phosphorylated SRC^416 (kinase activity) (SRC): significant shift towards lower intensity levels; tmax ([1]; both sexes, CD-1, im, intramuscular injection, 10 or 50 mg/kg, read-out: median time to maximum concentration (Tmax)): 2 to 4 h; AUClast [1, 6]: 93.54 µg·h/mL; AUC∞ [1, 6]: 98.469 µg·h/mL; Cmax [1, 6]: 8203 ng/mL; MRT∞ [1, 6]: 7.83 h; t1/2 [1, 6]: 5.59 h; tmax [1, 6]: 2 h; AUClast [1, 7]: 222.518 µg·h/mL; AUC∞ [1, 7]: 256.486 µg·h/mL; Cmax [1, 7]: 15103 ng/mL; MRT∞ [1, 7]: 11.8 h; t1/2 [1, 7]: 8.10 h; tmax [1, 7]: 4 h; AUClast [1, 8]: 162.488 µg·h/mL; AUC∞ [1, 8]: 162.568 µg·h/mL; Cmax [1, 8]: 23683 ng/mL; MRT∞ [1, 8]: 4.46 h; t1/2 [1, 8]: 2.12 h; tmax [1, 8]: 2 h; AUClast [1, 9]: 651.387 µg·h/mL; AUC∞ [1, 9]: 651.534 µg·h/mL; Cmax [1, 9]: 81633 ng/mL; MRT∞ [1, 9]: 4.73 h; t1/2 [1, 9]: 1.90 h; tmax [1, 9]: 2 h; median time to maximum concentration (Tmax) ([1]; intraperitoneal injection, 10 or 50 mg/kg): 2 h; Myosin Heavy Chain and nuclei count [2]: without reducing Myosin Heavy Chain or nuclei count; Quantitation % of DUX4 reduction @the lowest significant [C] (DUX4 [3]): 66.39% and 51.75% and 79.76% and 82.94%; DNA methylation levels at 4qA or D4Z4 regions [4]: No statistically significant effect; DUX4 expression, dose curve (DUX4 [5]; 17MB026 primary myotubes, 10-point dose curve 2 nM-5 μM, 2.5 days): dose-dependent decrease of DUX4 expression; IC50 (DUX4 [5]; Homo sapiens, Myotube, 17MB026 primary FSHD patient myotubes, read-out: IC50 value, DUX4-suppressive effect): ~100 nM
